Source: PubChem BioAssay AID248 (DTP/NCI, 2004)
Where “and” joins values, the source holds several entries; their conditions need not be identical. Identical values can stand only once. Inconclusive results and toxic doses are left out.

Test system: L1210 leukemia ip in BDF1 mice, survival T/C
Test: NCI In Vivo Anticancer Drug Screen. Data for tumor model L1210 Leukemia (intraperitoneal) in B6D2F1 (BDF1) mice
Details: endpoint: mean survival time, higher = longer survival
Summary of the method: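 Tumor was transplanted into mice, which were then dosed with test compound or vehicle alone. Survival was recorded for each group, and the treated figure was expressed relative to the control figure.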

[1] = dose: 50.0 mg/kg/injection, schedule: Q01DX001 (ip), vehicle: saline
[2] = dose: 100.0 mg/kg/injection, schedule: Q01DX001 (ip), vehicle: saline
[3] = dose: 200.0 mg/kg/injection, schedule: Q01DX001 (ip), vehicle: saline
[4] = dose: 400.0 mg/kg/injection, schedule: Q01DX001 (ip), vehicle: saline
[5] = dose: 100.0 mg/kg/injection, schedule: Q04DX003 (ip), vehicle: Klucel (hydroxypropylcellulose) (HPC)
[6] = dose: 200.0 mg/kg/injection, schedule: Q04DX003 (ip), vehicle: Klucel (hydroxypropylcellulose) (HPC)
[7] = dose: 400.0 mg/kg/injection, schedule: Q04DX003 (ip), vehicle: Klucel (hydroxypropylcellulose) (HPC)
[8] = dose: 100.0 mg/kg/injection, schedule: Q01DX009 (ip), vehicle: saline with Tween-80
[9] = dose: 200.0 mg/kg/injection, schedule: Q01DX009 (ip), vehicle: saline with Tween-80
[10] = dose: 400.0 mg/kg/injection, schedule: Q01DX009 (ip), vehicle: saline with Tween-80
[11] = dose: 100.0 mg/kg/injection, schedule: Q04DX003 (ip), vehicle: saline with Tween-80
[12] = dose: 200.0 mg/kg/injection, schedule: Q04DX003 (ip), vehicle: saline with Tween-80
[13] = dose: 400.0 mg/kg/injection, schedule: Q04DX003 (ip), vehicle: saline with Tween-80
[14] = dose: 12.5 mg/kg/injection, schedule: Q01DX009 (ip), vehicle: Klucel (hydroxypropylcellulose) (HPC)
[15] = dose: 25.0 mg/kg/injection, schedule: Q01DX009 (ip), vehicle: Klucel (hydroxypropylcellulose) (HPC)
[16] = dose: 50.0 mg/kg/injection, schedule: Q01DX009 (ip), vehicle: Klucel (hydroxypropylcellulose) (HPC)
[17] = dose: 100.0 mg/kg/injection, schedule: Q01DX009 (ip), vehicle: saline
[18] = dose: 100.0 mg/kg/injection, schedule: Q01DX009 (ip), vehicle: Klucel (hydroxypropylcellulose) (HPC)
[19] = dose: 200.0 mg/kg/injection, schedule: Q01DX009 (ip), vehicle: Klucel (hydroxypropylcellulose) (HPC)
[20] = dose: 25.0 mg/kg/injection, schedule: Q04DX003 (ip), vehicle: saline

In the case of `Cc1ccc(Nc2n[nH]c(=S)s2)cc1F`, the T/C (dose: 75.0 mg/kg/injection, schedule: Q01DX001 (ip), vehicle: other) is reported as 100 % of control, the T/C (dose: 150.0 mg/kg/injection, schedule: Q01DX001 (ip), vehicle: other) is reported as 100 % of control and the T/C (dose: 300.0 mg/kg/injection, schedule: Q01DX001 (ip), vehicle: other) is reported as 100 % of control.
`COc1ccccc1CN1CCCN(Cc2ccccc2OC)C1c1ccc(N(C)C)cc1` was tested, and the T/C [1] was 98 % of control, the T/C [2] was 98 % of control and the T/C [3] was 95 % of control. For the same molecule, the T/C [4] was 88 % of control.
`COC1=Nc2ccccc2/C=C\c2ccccc21` was tested, and the T/C (dose: 100.0 mg/kg/injection, schedule: Q04DX002 (ip), vehicle: carboxymethylcellulose (CMC)) was 96 % of control, the T/C (dose: 200.0 mg/kg/injection, schedule: Q04DX002 (ip), vehicle: carboxymethylcellulose (CMC)) was 89 % of control and the T/C (dose: 400.0 mg/kg/injection, schedule: Q04DX002 (ip), vehicle: carboxymethylcellulose (CMC)) was 89 % of control.
`CC[S][Pb]([c]1ccccc1)([c]1ccccc1)[c]1ccccc1` was tested, and the T/C (dose: 12.5 mg/kg/injection, schedule: Q04DX002 (ip), vehicle: Klucel (hydroxypropylcellulose) (HPC)) was 103 % of control.
`CC(=O)OC1COC(NC(=O)NCCCl)C(OC(C)=O)C1OC(C)=O` (centres undefined) was tested, and the T/C [5] was 109 % of control, the T/C [6] was 103 % of control and the T/C [7] was 103 % of control.
In the case of `O=[N+]([O-])c1ccc(/C=C/c2ncccn2)o1`, the T/C [5] is reported as 97 % of control, the T/C [6] is reported as 103 % of control and the T/C [7] is reported as 97 % of control.
`CCCC(C)(COC(N)=O)COC(N)=O` was tested, and the T/C [8] was 93 % of control, the T/C [9] was 90 % of control and the T/C [10] was 109 % of control.
With `CC(=O)NCc1cccc([N+](=O)[O-])c1` the T/C (dose: 25.0 mg/kg/injection, schedule: Q01DX005 (ip), vehicle: saline) was 111 % of control and the T/C (dose: 100.0 mg/kg/injection, schedule: Q01DX005 (ip), vehicle: saline) was 102 % of control.
`O=N[O-].O=N[O-].[Co].[NH2-].[NH2-].[NH2-].[NH2-]` was tested, and the T/C (dose: 100.0 mg/kg/injection, schedule: Q04DX002 (ip), vehicle: saline with Tween-80) was 112 % of control.
In the case of `CC(C)CNC(=O)Oc1cccc(NC(=O)N(C)C)c1`, the T/C [11] is reported as 92 % of control, the T/C [12] is reported as 94 % of control and the T/C [13] is reported as 94 % of control.
With `O=C(NNc1ccccc1)OCCCl` the T/C [14] was 95 % of control, the T/C [15] was 101 % of control and the T/C [16] was 107 % of control.
In the case of `CC(=O)c1cccc(N=C=O)c1`, the T/C (dose: 25.0 mg/kg/injection, schedule: Q01DX001 (ip), vehicle: saline with Tween-80) is reported as 101 % of control, the T/C (dose: 50.0 mg/kg/injection, schedule: Q01DX001 (ip), vehicle: saline with Tween-80) is reported as 93 % of control and the T/C (dose: 100.0 mg/kg/injection, schedule: Q01DX001 (ip), vehicle: saline with Tween-80) is reported as 111 % of control.
With `Nc1ccc(CCc2[nH]c(N)nc(=S)c2-c2ccc(Cl)cc2)cc1` the T/C [12] was 110 % of control and the T/C [13] was 86 % of control.
In the case of `O=C(Nc1cc([N+](=O)[O-])ccc1Cl)N(Cc1ccccc1)c1ccccc1`, the T/C [14] is reported as 94 % of control and 95 % of control, the T/C [15] is reported as 94 % of control and 97 % of control and the T/C [16] is reported as 89 % of control.
For `Nc1ccc(Oc2ccc(Cl)cc2)c(Cl)c1`, the T/C [8] was 103 % of control, the T/C [5] was 103 % of control and the T/C [9] was 94 % of control. The T/C [6] was 92 % of control and the T/C [7] was 111 % of control.
With `C(=C(\C[P+](c1ccccc1)(c1ccccc1)c1ccccc1)c1ccccc1)/c1ccccc1` the T/C (dose: 5.0 mg/kg/injection, schedule: Q01DX009 (ip), vehicle: saline with Tween-80) was 97 % of control, the T/C (dose: 5.0 mg/kg/injection, schedule: Q04DX003 (ip), vehicle: saline with Tween-80) was 93 % of control and the T/C (dose: 20.0 mg/kg/injection, schedule: Q04DX003 (ip), vehicle: saline with Tween-80) was 86 % of control.
In the case of `CCN(CC)CCN(CC)CCN(CC)CC`, the T/C [17] is reported as 94 % of control and the T/C (dose: 200.0 mg/kg/injection, schedule: Q01DX009 (ip), vehicle: saline) is reported as 115 % of control.
`N=C(N)/C(N)=N\C1=NCCN1` was tested, and the T/C [18] was 101 % of control, the T/C [5] was 95 % of control and the T/C (dose: 178.0 mg/kg/injection, schedule: Q04DX003 (ip), vehicle: Klucel (hydroxypropylcellulose) (HPC)) was 97 % of control. The T/C [19] was 101 % of control, the T/C [6] was 93 % of control and the T/C (dose: 266.0 mg/kg/injection, schedule: Q04DX003 (ip), vehicle: Klucel (hydroxypropylcellulose) (HPC)) was 92 % of control. The T/C [7] was 90 % of control and 92 % of control and the T/C (dose: 600.0 mg/kg/injection, schedule: Q04DX003 (ip), vehicle: Klucel (hydroxypropylcellulose) (HPC)) was 93 % of control.
`CCOC(=O)C(C#N)c1ccccc1` (centres undefined) was tested, and the T/C [1] was 96 % of control, the T/C [2] was 100 % of control and the T/C [3] was 100 % of control.
With `Nc1nc(N)c(-c2ccc(Cl)cc2)c(CO)n1` the T/C [2] was 93 % of control, the T/C [3] was 104 % of control and the T/C [4] was 95 % of control.
For `CCCCCC(CCCCC)c1ccccn1`, the T/C [2] was 94 % of control, the T/C [3] was 103 % of control and the T/C [4] was 100 % of control.
`CN(C)C(=O)/N=N/C(=O)N(C)C` was tested, and the T/C (dose: 25.0 mg/kg/injection, schedule: Q01DX009 (ip), vehicle: saline) was 97 % of control, the T/C [20] was 96 % of control and the T/C (dose: 50.0 mg/kg/injection, schedule: Q01DX009 (ip), vehicle: saline) was 106 % of control. For the same molecule, the T/C (dose: 50.0 mg/kg/injection, schedule: Q04DX003 (ip), vehicle: saline) was 102 % of control, the T/C [17] was 101 % of control and the T/C (dose: 100.0 mg/kg/injection, schedule: Q04DX003 (ip), vehicle: saline) was 102 % of control.
With `CC(=O)CC(=O)CC(C)C` the T/C [1] was 105 % of control, the T/C [2] was 103 % of control and the T/C [3] was 100 % of control. The T/C [4] was 94 % of control.
With `CCCc1ccc(OCC(=O)O)c(OC)c1` the T/C (dose: 75.0 mg/kg/injection, schedule: Q01DX001 (ip), vehicle: acetone) was 93 % of control, the T/C (dose: 150.0 mg/kg/injection, schedule: Q01DX001 (ip), vehicle: acetone) was 92 % of control and the T/C (dose: 300.0 mg/kg/injection, schedule: Q01DX001 (ip), vehicle: acetone) was 88 % of control.
`CSc1nnc(-c2ccc(OCCOc3ccc(C(C)(C)CC(C)(C)C)cc3)cc2)s1` was tested, and the T/C [11] was 89 % of control, the T/C [12] was 94 % of control and the T/C [13] was 91 % of control.
`Cc1c2ccncc2c(C)c2c1[nH]c1ccc(O)cc12` was tested, and the T/C (dose: 3.1 mg/kg/injection, schedule: Q01DX009 (ip), vehicle: saline with Tween-80) was 158 % of control, the T/C (dose: 6.25 mg/kg/injection, schedule: Q01DX009 (ip), vehicle: saline with Tween-80) was 100 % of control and the T/C (dose: 6.3 mg/kg/injection, schedule: Q04DX003 (ip), vehicle: saline with Tween-80) was 122 % of control. The T/C (dose: 12.5 mg/kg/injection, schedule: Q01DX001 (oral), vehicle: saline with Tween-80) was 104 % of control, the T/C (dose: 12.5 mg/kg/injection, schedule: Q01DX009 (ip), vehicle: saline with Tween-80) was 98 % of control and the T/C (dose: 25.0 mg/kg/injection, schedule: Q01DX001 (oral), vehicle: saline with Tween-80) was 106 % of control. For the same molecule, the T/C (dose: 50.0 mg/kg/injection, schedule: Q01DX001 (oral), vehicle: saline with Tween-80) was 104 % of control, the T/C (dose: 50.0 mg/kg/injection, schedule: Q04DX003 (ip), vehicle: saline with Tween-80) was 98 % of control and the T/C (dose: 100.0 mg/kg/injection, schedule: Q01DX001 (oral), vehicle: saline with Tween-80) was 114 % of control. For the same molecule, the T/C (dose: 200.0 mg/kg/injection, schedule: Q01DX001 (oral), vehicle: saline with Tween-80) was 112 % of control.
In the case of `COc1ccc(Cl)cc1NC(=O)C(Br)C(Br)c1ccccc1` (centres undefined), the T/C [18] is reported as 100 % of control, the T/C [19] is reported as 97 % of control and the T/C (dose: 400.0 mg/kg/injection, schedule: Q01DX009 (ip), vehicle: Klucel (hydroxypropylcellulose) (HPC)) is reported as 86 % of control.
In the case of `N=C(N)c1ccc(-n2nc3ccc(C(=N)N)cc3n2)cc1`, the T/C (dose: 6.25 mg/kg/injection, schedule: Q04DX003 (ip), vehicle: saline) is reported as 100 % of control and 103 % of control, the T/C (dose: 12.5 mg/kg/injection, schedule: Q04DX003 (ip), vehicle: saline) is reported as 100 % of control and the T/C [20] is reported as 100 % of control.
`COc1cc(/C=N/NC(=O)c2cccs2)cc(OC)c1OC` was tested, and the T/C [8] was 98 % of control, the T/C [9] was 94 % of control and the T/C [10] was 98 % of control.
